In patent US20210299286A1, “TETRAZINES FOR HIGH CLICK CONJUGATION YIELD IN VIVO AND HIGH CLICK RELEASE YIELD” (Tagworks Pharmaceuticals B.V., priority 2018, published 2021):

Legend:
[1] = In vitro microsomal stability of TZ activators, human microsomes; assay type: in vitro ADME; conditions: 5 μM activator, 0.5 mg/mL microsomes, normalized to 100% at t=0, LC-MS
Experimental: (§1) The in vitro stability of activators 4.11, 4.13, and 4.15 was tested in the presence of human, mouse, rat and cynomolgus microsomes after 30 min incubation (normalized to 100% at t=0). Control samples were incubated with the same concentration of BSA. The activators (5 μM) were incubated in 20 mM phosphate buffer pH 7.4 containing the microsomes (0.5 mg/mL), 1 mM NADP, 5 mM glucose-6-phosphate, 1 U/mL glucose-6-phosphate dehydrogenase, and 2 mM MgCl2 at 37° C. and the measurements were performed by LC-MS. The amount of activator in solution was quantified using calibration curves.

[2] = In vitro microsomal stability of TZ activators, rat microsomes; assay type: in vitro ADME; conditions: 5 μM activator, 0.5 mg/mL microsomes, normalized to 100% at t=0, LC-MS
Experimental: as §1

[3] = In vitro microsomal stability of TZ activators, cynomolgus microsomes; assay type: in vitro ADME; conditions: 5 μM activator, 0.5 mg/mL microsomes, normalized to 100% at t=0, LC-MS
Experimental: as §1

[4] = Control incubation with BSA in the microsomal stability test; assay type: in vitro ADME; conditions: control samples, same concentration of BSA
Experimental: as §1

AVP0458-TCO-MMAE = assay: MMAE release from diabody ADC with D8-MMAE internal standard (LC-SIM-MS); assay type: biochemical; conditions: 10 equiv of tetrazine, PBS/plasma (1/1), 37° C., after 24 h, n=3
Experimental: In an alternative method MMAE release from diabody ADC (AVP0458-TCO-MMAE) was determined by using a deuterated internal standard D8-MMAE. ADC (1.1×10^−10 moles bound MMAE) and D8-MMAE (1.1×10^−10 moles) and 10 equiv of tetrazine were incubated in 100 uL PBS/plasma (1/1) at 37° C.

[5] = In vitro microsomal stability of TZ activators, mouse microsomes; assay type: in vitro ADME; conditions: 5 μM activator, 0.5 mg/mL microsomes, normalized to 100% at t=0, LC-MS
Experimental: as §1

[6] = In vitro tetrazine stability (decrease of UV absorbance at 520 nm); assay type: physicochemical; conditions: 10% MeCN/PBS; read-out: In vitro tetrazine stability (h), t1/2 (converted)
Experimental: The stability of tetrazines was evaluated by dissolving them in 10% MeCN/PBS at 37° C. and following the decrease of the tetrazine UV absorbance at 520 nm in time (Table 4).

[7] = Second-order reaction rate constant with TCO derivative by UV spectroscopy; assay type: physicochemical; conditions: 25% MeCN/PBS at 20° C.
Experimental: The second-order reaction rate constants were calculated from the rate at which the absorption at 520 nm (specific for the TZ moiety) decreased (Table 4).

[8] = test system: LS174T tumor-bearing mice; assay: Tumor blocking experiment, mice pretreated with diabody-based ADC AVP0458-TCO-MMAE; assay type: in vivo, mouse; conditions: AVP0458-TCO-MMAE ca. 2 mg/kg, activator 48 h later, probe [111In]In-5.1; compared with the other TZ's
Experimental: (§2) The animal studies were performed in accordance with the principles established by the revised Dutch Act on Animal Experimentation (1997) and were approved by the institutional Animal Welfare Committee of the Maastricht University and Radboud University Nijmegen. The colorectal cancer (LS174T) mouse model was reported in Rossin et al. Bioconjug. Chem., 2016, 27, 1697-1706.
(§3) To assess the in vivo reaction of TZ activators towards TCO-containing ADCs, tumor blocking experiments were performed as described in Rossin et al., Bioconjug. Chem. 2016, 27, 1697-1706.
A series of 3-pyrimidyl-6-alkyl TZ activators (4.1, 4.11, 4.13, 4.15, 4.26, 4.28) was then compared to compound 4.12 in LS174T tumor-bearing mice (n=3-5) pretreated with a diabody-based ADC (AVP0458-TCO-MMAE; DAR=4). The mice were injected the ADC at a ca. 2 mg/kg dose followed 48 h later by the activator (dose 1×: ca. 3.35 μmol/kg; dose 2.5×: ca. […]; dose 5×: ca. 0.017 mmol/kg; dose 10×: ca. 0.033 mmol/kg; dose 100×: ca. 0.335 mmol/kg) and, 1 h post-activator, by the [^111In]In-5.1 probe. Three hours ([…], 4.15) or 24 h (4.26, 4.28) post-probe injection the mice were euthanized and the tumor blocking capacity of the various activators at the administered dose (FIG. 2B) was calculated as reported above.

CC49-TCO-Dox [9] = assay: In vitro Dox release from CC49-TCO-Dox in 50% mouse serum; assay type: biochemical
Experimental: (§4) Doxorubicin (Dox) release from the TCO-linked ADC CC49-TCO-Dox with various TZ activators in PBS and 50% mouse serum at 37° C. was evaluated in vitro as described in Rossin et al. Bioconjug. […] The results of these experiments are depicted in Tables 3 (PBS) and 4 (mouse serum). The release reactions were performed in triplicate unless otherwise stated in the result table.

CC49-TCO-Dox [10] = assay: In vitro Dox release from CC49-TCO-Dox in PBS; assay type: biochemical
Experimental: as §4

[11] = test system: LS174T tumor-bearing mice; assay: Tumor blocking experiment, mice pretreated with IgG-based ADC CC49-TCO-Dox; assay type: in vivo, mouse; conditions: CC49-TCO-Dox 5 mg/kg, clearing agent, TZ activator, probe [177Lu]Lu-5.1; compared with the other TZ's
Experimental: as §2, §3
A series of 3,6-bisalkyl TZ activators (2.1, 2.2, 2.9, 2.11, 2.12) and 3-alkyl-6-pyridyl TZ activators (3.1, 3.2, 3.4) was tested in tumor-bearing mice (n=3-4) pretreated with an IgG-based ADC (CC49-TCO-Dox, DAR ca. 2) at a 5 mg/kg dose. A clearing agent (galactose-albumin-TZ, Rossin et al., J. Nucl. Med. 2013, 54, 1989-1995) was administered to the mice 24 post-ADC injection followed by the TZ activator (dose 10×: ca. 0.033 mmol/kg; close 100×: ca. 0.335 mmol/kg) 2 h later. One-hour after activation the mice were administered the highly reactive radiolabeled probe [^177Lu]Lu-5.1 (ca. 0.335 μmol/kg, ca. 1.5 MBq/mouse) and were euthanized 3 h later. All injections were performed intravenously. Tumors were harvested and the radioactivity was measured by γ-counting along with standards to determine the % injected dose per gram (% ID/g). […]

Row | In vitro microsomal stability of TZ activators after 30 min incubation at 37° C.: Human [1] [%] | In vitro microsomal stability of TZ activators after 30 min incubation at 37° C.: Rat [2] [%] | In vitro microsomal stability of TZ activators after 30 min incubation at 37° C.: Cynomolgus [3] [%] | In vitro microsomal stability of TZ activators after 30 min incubation at 37° C.: BSA [4] [%] | In vitro microsomal stability of TZ activators after 30 min incubation at 37° C.: Mouse [5] [%] | half-life [6] [h] | SMILES | induced MMAE release (%) from AVP0458-TCO-MMAE (AVP0458-TCO-MMAE) [%] | reactivity (k2) [7] [M⁻¹ s⁻¹] | tumor blocking capacity (FIG. 2B) [8] | In vitro Dox release (%) from CC49-Dox at 37° C. in 50% mouse serum: 1 h (CC49-TCO-Dox [9]; 1 h) [%] | In vitro Dox release (%) from CC49-Dox at 37° C. in 50% mouse serum: 2 h (CC49-TCO-Dox [9]; 2 h) [%] | In vitro Dox release (%) from CC49-Dox at 37° C. in 50% mouse serum: 3 h (CC49-TCO-Dox [9]; 3 h) [%] | In vitro Dox release (%) from CC49-Dox at 37° C. in PBS: 1 h (CC49-TCO-Dox [10]; 1 h) [%] | In vitro Dox release (%) from CC49-Dox at 37° C. in PBS: 2 h (CC49-TCO-Dox [10]; 2 h) [%] | In vitro Dox release (%) from CC49-Dox at 37° C. in PBS: 3 h (CC49-TCO-Dox [10]; 3 h) [%] | In vitro Dox release (%) from CC49-Dox at 37° C. in PBS: 24 h (CC49-TCO-Dox [10]; 24 h) [%] | In vitro Dox release (%) from CC49-Dox at 37° C. in PBS: 48 h (CC49-TCO-Dox [10]; 48 h) [%] | tumor blocking capacity (FIG. 2A) [11]
1 | 87.7 | 91.1 | 85.6 ± 0.5 | 87.5 | 81.2 | – | CN(CCc1nnc(-c2ncccn2)nn1)C(=O)CCCC(=O)NC(CO)(CO)CO [Compound 4.15] | 55 ± 0.4 | – | – | – | – | – | – | – | – | – | – | –
2 | – | – | – | – | – | 10 | Cc1nnc(-c2ncccn2)nn1 [Compound 4.1, 3-methyl-6-(pyrimidin-2-yl)-1,2,4,5-tetrazine, reference compound] | 69 ± 0.0 | 250 | perform much worse | – | – | – | – | – | – | – | – | –
3 | – | – | – | – | – | 14 | Cc1nnc(C)nn1 [Compound 2.1, 3,6-dimethyl-1,2,4,5-tetrazine] | 95 ± 0.4 | 14 | – | 64.6 ± 1.0 | 68.7 ± 1.1 | 69.7 ± 1.0 | 76.1 | 78.5 | 78.8 | 80.6 | 81.5 | perform much worse
